How the values were obtained:
[1] = tested on: heat shock protein 72 (Hsp72); assay: Liver Hsp72 after inescapable tail shock stress in diet-fed rats; type: in vivo, male F344 rats; settings: diet for 4 weeks, after stressor exposure
Source text: This study sought to determine whether the administration of PDX, GOS, and lactoferrin could modulate stress-evoked responses and the concentration of inflammatory cytokines and chemokines in blood or tissue. Briefly, male F344 rats were pair-housed in a barrier facility and fed experimental or control diet for 4 weeks. The diet formulations were as follows: (1) control, (2) diet supplemented with lactoferrin (LAC), (3) diet supplemented with GOS and PDX, and (4) diet supplemented with GOS, PDX, and Lactoferrin.
The rats were pair housed in standard Nalgene Plexiglas cages (45 cm×25.2 cm×14.7 cm) and had ad libitum access to food and water for the duration of the experimental procedures. Food consumption was monitored three times per week by weighing the chow pellets within each food hopper. Following 4 weeks on the diets, rats were exposed to inescapable (IS) or remained within their home cage undisturbed (home cage controls; HCC). IS consisted of 100, 1.5 mA inescapable tail shocks administered at variable intervals over a period of approximately 2 hours. Rats exposed to IS were restrained in Broome-style Plexiglas tubes (23.4 cm in length and 7.0 cm in diameter) with their tails exposed for electrode attachment.
Furthermore, in the same study heat shock protein 72 (Hsp72) was measured in the liver. […]

[2] = tested on: ganglioside-bound sialic acid in corpus callosum and cerebellum; assay: Ganglioside-bound sialic acid in brain regions of suckling pigs fed sialyllactose diets (periodic acid-resorcinol reaction); type: in vivo; settings: diet supplemented with 4 g/L, fed 21 days
Source text: This study sought to determine whether administration of certain isomers of sialyllactose could increase or enrich sialic acid in the brain tissues of neonatal pigs. Indeed, accumulation of sialic acid in the brain during neonatal development is associated with increased cognitive functioning. Further, sialic acid (SA) is a key component of human milk oligosaccharides and neural tissues. SA accumulates in the brain rapidly during neonatal development and is thought to play an important role in brain development. […] Piglets readily consumed the formula, grew at normal rates and remained clinically healthy throughout the experiment.
After 21 days, the pigs were euthanized and the left hemisphere of the brain was dissected into cerebrum, cerebellum, corpus callosum, and hippocampus regions. […] The lipid- and protein-bound sialic acid contents from each sample were determined using a modified periodic acid-resorcinol reaction. Free sialic acid was calculated by difference. Briefly, the sialic from the protein and ganglioside fractions was first oxidized using the periodic acid reagent, which released the oxidized sialic-aldehyde derivative quantitatively. The released sialic derivative was measured colorimetrically using the resorcinol-HCl reagent.

[3] = tested on: microbial taxa of the proximal and distal colon; assay: Gut microbiome of suckling pigs, 16S rDNA Illumina sequencing of colon digesta; type: in vivo; settings: 21 days
Source text: This study sought to determine whether administration of certain isomers of sialyllactose could modulate the microbiome of developing neonatal pigs, i.e. suckling pigs. Indeed, selectively promoting beneficial gut microbiota in preterm and term infants, toddlers, and children may provide long-term health benefits, including neuronal benefits. Briefly, day-old pigs were randomized among 6 diets; (1) control diet, (2) diet supplemented with 2 g/L of 3′-sialyllactose, (3) diet supplemented with 4 g/L of 3′-sialyllactose, (4) diet supplemented with 2 g/L of 6′-sialyllactose, (5) diet supplement with 4 g/L of 6′-sialyllactose, and (6) 2 g/L PDX and 2 g/L GOS. The pigs were fed three times per day for 21 days.
Pigs were euthanized and intestinal digesta were analyzed from the proximal and distal colon. The microbiome analysis was performed via 16S rDNA Illumina sequencing. Briefly, DNA was extracted from digesta using the UltraClean Tissue and Cells DNA Isolation Kit (MoBio). The DNA was then cleaned using PowerClean DNA Clean-Up Kit (ThermoFisher Scientific, Waltham, Mass.) and quantified with the Qubit Quant-iT dsDNA Broad- Range Kit (MoBio Laboratories, Carlsbad, Calif.). The V4 region of 16S ribosomal RNA was amplified using primers 515F (5#-GTGCCAGCMGCCGCGGTAA-3#) and 806R (5#-[…]-3#). Resulting PCR products were sequenced using Illumina MiSeq paired-end technology. High-quality sequences were searched against Greengenes database and then clustered at 97% sequence identity to form operational taxonomic units (OTUs) and assigned taxonomic classification. Similarity between microbial communities was assessed using the Bray-Curtis distance metric and then visualized using principal coordinates analysis. To test the community differences between microbiota between all groups of samples, we used the Adonis function. Because all genera were considered in the test, the Bonferroni multiple comparison correction was applied.

[4] = supplemented diet, colon digesta

lactoferrin
effect of stress on liver Hsp72 expression [1]: reduction in the effect of stress

CC(=O)N[C@H]1[C@H]([C@H](O)[C@H](O)CO)O[C@@](O[C@H]2[C@@H](O)[C@@H](CO)O[C@@H](O[C@H]3[C@H](O)[C@@H](O)C(O)O[C@@H]3CO)[C@@H]2O)(C(=O)O)C[C@@H]1O (stereo partly shown) [3′-sialyllactose]
increase of ganglioside-bound sialic acid in the cerebellum compared to control pigs [2]: over 10%

CC(=O)N[C@H]1[C@H]([C@H](O)[C@H](O)CO)O[C@@](OC[C@H]2O[C@@H](O[C@H]3[C@H](O)[C@@H](O)[C@H](O)O[C@@H]3CO)[C@H](O)[C@@H](O)[C@H]2O)(C(=O)O)C[C@@H]1O [6′-sialyllactose]
bacterial taxa of Collinsella aerofaciens, Ruminococcus, Faecalibacterium and Prevotella ([3]; diet supplemented with 4 g/L, compared to the control diet): increase | microbiome difference versus control diet ([3]; diet supplemented with 4 g/L, proximal and distal colon): statistically significant microbiome difference | bacterial taxa belonging to the phyla Actinobacteria and Bacteroidetes ([3]; diet supplemented with 4 g/L, versus control diet): statistically significant increase | taxa of the family Enterobacteriaceae and Enterococaceae, fold lower than in the control diet [3, 4]: 2.3 fold | taxa of the family Lachnospiraceael and order Lactobacillales, fold lower than in the control diet [3, 4]: 4 fold
